Results from patent US11945816B2, “Inhibitors of EGFR and/or HER2 and methods of use” (Dana-Farber Cancer Institute, Inc., priority 2017, dated 2024).

What was measured:
Assay type in all cases: cell-based
Conditions in all cases: MTS assay, 72 hours
[1] = biological target: T1, wild-type EGFR transformed Ba/F3 cells (Homo sapiens, UniProt P00533); assay: Proliferation inhibition assay, wild-type EGFR transformed Ba/F3 cells
T1 construct: expressed in transfected cells; host or cells: Ba/F3
Description: (§1) Cell growth inhibition can be assessed by MTS assay or by Cell Titer Glo Luminescent Cell viability assay (Promega®). Cells are seeded and grow in culture plates before they are exposed to representative compounds of the application for various duration. The viability of the cells are then assessed. […] The growth curves can be fitted using a nonlinear regression model with sigmoidal dose response.
(§2) Cell growth inhibition was assessed by MTS assay for Ba/F3, DFCI58-229, and DFCI127c cells, or by Cell Titer Glo Luminescent Cell viability assay (Promega®) for DFC1362JC cells, 3000 Ba/F3 cells were seeded for per well in 96-well plates, and were exposed to representative compounds of the application (3.3 nM to 10 μM) for 72 hours. For DFCI58-229, DFCI127c, and DFC1362JC cells, 5000 cells were seeded per well. All experimental points included 6 to 12 wells. […] The growth curves were fitted using a nonlinear regression model with sigmoidal dose response.
(§3) Activities of representative compounds of the present application in inhibiting EGFR and HER2 were tested by MTS assay (for Ba/F3 cell, DFCI58-229 cell, and DFCI127c cells) or by CellTiter-Glot luminescent cell viability assay (for DFCI362JC cells). For assays with Ba/F3 cells, 3000 cells were seeded for per well in 96-well plates and were exposed to indicated compounds with a concentration of 3.3 to 10 μM for 72 hours. For assays with DFCI58-229 cell, DFCI127c cell, or DFCI362JC cell, 5000 cells were seeded per well in 96-well plates and were exposed to indicated compounds with a concentration of 3.3 to 10 μM for 72 hours.

[2] = biological target: T2, EGFR InsGY (D770delinsGY) transformed Ba/F3 cells (Homo sapiens, UniProt P00533, D770Y/INS769G); assay: Proliferation inhibition assay, EGFR InsGY transformed Ba/F3 cells
T2 construct: expressed in transfected cells; host or cells: Ba/F3
Description: as §1, §2, §3

[3] = biological target: T3, EGFR InsSVD (D770_N771insSVD) transformed Ba/F3 cells (Homo sapiens, UniProt P00533, INS770SVD); assay: Proliferation inhibition assay, EGFR InsSVD transformed Ba/F3 cells
T3 construct: expressed in transfected cells; host or cells: Ba/F3
Description: as §1, §2, §3

[4] = biological target: T4, EGFR InsH transformed Ba/F3 cells (Homo sapiens, UniProt P00533, DUP773-773); assay: Proliferation inhibition assay, EGFR InsH transformed Ba/F3 cells
T4 construct: expressed in transfected cells; host or cells: Ba/F3
Description: as §1, §2, §3

[5] = biological target: T5, wild-type HER2 transformed Ba/F3 cells (Homo sapiens, UniProt P04626); assay: Proliferation inhibition assay, wild-type HER2 transformed Ba/F3 cells
T5 construct: expressed in transfected cells; host or cells: Ba/F3
Description: as §1, §2, §3

[6] = biological target: T6, HER2 InsYVMA (A775_G776insYVMA) transformed Ba/F3 cells (Homo sapiens, UniProt P04626, INS775YVMA); assay: Proliferation inhibition assay, HER2 InsYVMA transformed Ba/F3 cells
T6 construct: expressed in transfected cells; host or cells: Ba/F3
Description: as §1, §2, §3

[7] = biological target: T7, HER2 InsWLV transformed Ba/F3 cells (Homo sapiens, UniProt P04626, INS773WL/M774V); assay: Proliferation inhibition assay, HER2 InsWLV transformed Ba/F3 cells
T7 construct: expressed in transfected cells; host or cells: Ba/F3
Description: as §1, §2, §3

T3 sequence (P00533 with tags, fused parts or gaps INS770SVD): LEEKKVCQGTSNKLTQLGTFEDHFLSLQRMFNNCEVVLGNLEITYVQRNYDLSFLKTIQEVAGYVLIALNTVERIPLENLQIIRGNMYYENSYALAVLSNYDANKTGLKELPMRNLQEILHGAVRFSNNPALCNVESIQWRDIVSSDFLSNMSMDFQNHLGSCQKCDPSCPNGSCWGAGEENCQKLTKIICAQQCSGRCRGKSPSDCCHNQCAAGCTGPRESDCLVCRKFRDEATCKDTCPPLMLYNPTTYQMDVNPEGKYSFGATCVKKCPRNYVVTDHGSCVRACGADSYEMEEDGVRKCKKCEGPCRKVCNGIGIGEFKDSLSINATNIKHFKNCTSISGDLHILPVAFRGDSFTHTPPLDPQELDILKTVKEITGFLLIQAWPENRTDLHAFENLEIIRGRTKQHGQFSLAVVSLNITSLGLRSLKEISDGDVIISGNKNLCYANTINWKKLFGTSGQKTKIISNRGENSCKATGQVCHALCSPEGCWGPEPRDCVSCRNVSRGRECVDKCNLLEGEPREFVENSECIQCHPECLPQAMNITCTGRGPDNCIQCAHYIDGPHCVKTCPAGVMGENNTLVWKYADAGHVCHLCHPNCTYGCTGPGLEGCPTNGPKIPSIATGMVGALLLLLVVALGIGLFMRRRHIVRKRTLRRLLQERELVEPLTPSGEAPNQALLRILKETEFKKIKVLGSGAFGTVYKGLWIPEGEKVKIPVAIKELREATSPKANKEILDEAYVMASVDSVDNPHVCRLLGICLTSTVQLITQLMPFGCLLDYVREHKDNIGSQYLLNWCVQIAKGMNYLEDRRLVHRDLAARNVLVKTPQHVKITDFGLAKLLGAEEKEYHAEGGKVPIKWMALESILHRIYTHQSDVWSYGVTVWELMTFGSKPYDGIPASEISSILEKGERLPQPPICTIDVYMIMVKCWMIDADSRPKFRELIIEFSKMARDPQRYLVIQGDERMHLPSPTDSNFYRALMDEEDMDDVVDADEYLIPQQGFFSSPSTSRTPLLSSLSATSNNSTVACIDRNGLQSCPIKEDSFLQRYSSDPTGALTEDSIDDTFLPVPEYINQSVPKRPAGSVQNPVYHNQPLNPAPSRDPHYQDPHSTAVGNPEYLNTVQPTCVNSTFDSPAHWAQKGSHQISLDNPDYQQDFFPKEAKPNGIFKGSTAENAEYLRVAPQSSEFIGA
T1 sequence (P00533 25-1210): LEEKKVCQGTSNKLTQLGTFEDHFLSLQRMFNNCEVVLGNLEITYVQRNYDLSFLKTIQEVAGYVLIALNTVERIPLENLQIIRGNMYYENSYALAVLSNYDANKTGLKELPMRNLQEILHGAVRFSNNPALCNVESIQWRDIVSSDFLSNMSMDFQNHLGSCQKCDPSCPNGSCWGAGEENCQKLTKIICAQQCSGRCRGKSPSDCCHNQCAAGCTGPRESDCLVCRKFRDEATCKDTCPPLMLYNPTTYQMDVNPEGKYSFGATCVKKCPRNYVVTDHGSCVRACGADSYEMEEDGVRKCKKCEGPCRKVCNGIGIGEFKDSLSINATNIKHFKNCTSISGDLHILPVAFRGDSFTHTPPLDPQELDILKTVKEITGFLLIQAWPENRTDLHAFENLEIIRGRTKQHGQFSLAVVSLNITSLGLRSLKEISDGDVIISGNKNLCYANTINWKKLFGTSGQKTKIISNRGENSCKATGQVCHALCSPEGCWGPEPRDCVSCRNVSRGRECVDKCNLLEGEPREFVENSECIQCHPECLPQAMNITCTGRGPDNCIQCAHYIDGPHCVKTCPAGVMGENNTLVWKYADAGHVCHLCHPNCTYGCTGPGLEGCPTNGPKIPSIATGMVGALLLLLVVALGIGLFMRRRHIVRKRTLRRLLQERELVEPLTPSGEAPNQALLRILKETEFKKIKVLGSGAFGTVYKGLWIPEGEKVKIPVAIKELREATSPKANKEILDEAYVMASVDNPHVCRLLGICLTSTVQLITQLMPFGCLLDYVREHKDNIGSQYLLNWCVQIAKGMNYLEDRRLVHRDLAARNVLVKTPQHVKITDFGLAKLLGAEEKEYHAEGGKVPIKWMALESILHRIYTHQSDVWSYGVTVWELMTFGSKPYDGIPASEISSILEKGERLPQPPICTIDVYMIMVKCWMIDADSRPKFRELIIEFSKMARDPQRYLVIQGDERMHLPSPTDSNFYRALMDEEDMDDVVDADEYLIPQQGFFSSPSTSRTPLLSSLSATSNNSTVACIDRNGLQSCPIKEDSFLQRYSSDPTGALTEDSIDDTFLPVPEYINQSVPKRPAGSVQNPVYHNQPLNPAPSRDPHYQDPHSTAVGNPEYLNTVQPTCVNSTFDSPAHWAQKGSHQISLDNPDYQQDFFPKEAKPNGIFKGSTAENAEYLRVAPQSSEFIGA
T4 sequence (P00533 with tags, fused parts or gaps DUP773-773): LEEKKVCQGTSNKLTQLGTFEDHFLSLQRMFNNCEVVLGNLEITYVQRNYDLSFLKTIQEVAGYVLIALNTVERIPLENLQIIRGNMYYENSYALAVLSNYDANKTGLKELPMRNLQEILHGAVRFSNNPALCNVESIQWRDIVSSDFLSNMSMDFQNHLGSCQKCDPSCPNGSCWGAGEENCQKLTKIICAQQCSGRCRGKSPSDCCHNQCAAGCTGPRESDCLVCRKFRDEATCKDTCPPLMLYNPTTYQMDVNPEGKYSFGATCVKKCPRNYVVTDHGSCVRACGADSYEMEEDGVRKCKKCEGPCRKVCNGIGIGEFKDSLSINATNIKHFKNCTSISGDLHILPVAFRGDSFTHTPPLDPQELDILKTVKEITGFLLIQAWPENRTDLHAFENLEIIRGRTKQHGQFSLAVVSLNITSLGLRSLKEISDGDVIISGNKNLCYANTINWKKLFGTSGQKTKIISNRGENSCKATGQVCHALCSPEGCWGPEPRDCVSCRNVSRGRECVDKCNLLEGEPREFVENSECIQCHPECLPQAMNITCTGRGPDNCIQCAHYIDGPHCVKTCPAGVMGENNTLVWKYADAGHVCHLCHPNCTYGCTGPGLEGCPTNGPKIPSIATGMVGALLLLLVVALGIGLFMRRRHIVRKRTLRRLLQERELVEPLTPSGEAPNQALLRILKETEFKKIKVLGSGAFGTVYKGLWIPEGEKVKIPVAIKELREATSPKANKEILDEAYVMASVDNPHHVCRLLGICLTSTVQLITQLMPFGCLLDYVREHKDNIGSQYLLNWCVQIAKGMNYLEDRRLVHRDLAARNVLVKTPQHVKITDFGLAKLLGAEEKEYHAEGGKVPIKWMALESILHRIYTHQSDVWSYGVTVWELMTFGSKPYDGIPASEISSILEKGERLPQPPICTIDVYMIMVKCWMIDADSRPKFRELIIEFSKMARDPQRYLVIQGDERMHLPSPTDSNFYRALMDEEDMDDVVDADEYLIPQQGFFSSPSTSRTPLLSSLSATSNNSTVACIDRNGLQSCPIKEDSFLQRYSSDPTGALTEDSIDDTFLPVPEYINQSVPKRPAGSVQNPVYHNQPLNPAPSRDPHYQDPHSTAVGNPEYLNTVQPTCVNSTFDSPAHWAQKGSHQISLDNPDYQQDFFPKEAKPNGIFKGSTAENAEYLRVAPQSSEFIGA
T5 sequence (P04626 23-1255): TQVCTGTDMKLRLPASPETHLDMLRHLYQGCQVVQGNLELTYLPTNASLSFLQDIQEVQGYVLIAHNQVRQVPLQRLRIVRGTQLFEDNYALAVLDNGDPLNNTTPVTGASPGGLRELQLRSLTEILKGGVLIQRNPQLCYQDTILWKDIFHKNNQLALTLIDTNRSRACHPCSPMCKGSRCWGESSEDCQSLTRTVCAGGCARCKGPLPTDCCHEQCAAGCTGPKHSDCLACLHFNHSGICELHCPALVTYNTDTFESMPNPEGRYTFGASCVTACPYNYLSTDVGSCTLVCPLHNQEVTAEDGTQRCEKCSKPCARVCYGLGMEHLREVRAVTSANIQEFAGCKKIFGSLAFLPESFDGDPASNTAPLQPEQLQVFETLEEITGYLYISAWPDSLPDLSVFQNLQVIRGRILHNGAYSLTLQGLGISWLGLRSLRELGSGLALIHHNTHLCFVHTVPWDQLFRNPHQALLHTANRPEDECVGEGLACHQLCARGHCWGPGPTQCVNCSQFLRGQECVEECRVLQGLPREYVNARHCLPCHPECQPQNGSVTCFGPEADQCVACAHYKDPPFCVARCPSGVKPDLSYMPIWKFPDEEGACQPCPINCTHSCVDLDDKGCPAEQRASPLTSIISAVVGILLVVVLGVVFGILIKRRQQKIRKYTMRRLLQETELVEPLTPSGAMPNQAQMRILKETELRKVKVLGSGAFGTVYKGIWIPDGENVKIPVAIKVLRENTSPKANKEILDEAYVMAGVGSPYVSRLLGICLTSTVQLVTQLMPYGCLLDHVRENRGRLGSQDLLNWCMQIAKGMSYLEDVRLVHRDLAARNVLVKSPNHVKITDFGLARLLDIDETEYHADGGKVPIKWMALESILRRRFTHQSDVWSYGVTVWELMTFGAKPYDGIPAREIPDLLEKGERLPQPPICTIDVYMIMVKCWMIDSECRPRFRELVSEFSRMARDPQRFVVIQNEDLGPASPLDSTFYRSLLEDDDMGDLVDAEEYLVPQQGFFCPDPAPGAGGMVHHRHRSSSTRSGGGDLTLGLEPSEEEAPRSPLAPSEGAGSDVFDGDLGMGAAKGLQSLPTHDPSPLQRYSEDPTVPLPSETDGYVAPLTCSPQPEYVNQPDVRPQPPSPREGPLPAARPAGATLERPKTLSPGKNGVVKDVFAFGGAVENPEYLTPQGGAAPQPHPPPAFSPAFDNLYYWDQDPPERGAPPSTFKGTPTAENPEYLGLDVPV

Work on `C=CC(=O)Nc1cc(Nc2ncc3cc(Oc4ccc(F)cc4F)c(=O)n(C)c3n2)ncc1N(C)CCN(C)C` [Compound 105] yielded an EC50 [1] of 200 to 600 nM, an EC50 [2] greater than 1000 nM and an EC50 [3] greater than 1000 nM. For the same compound, the EC50 [4] was greater than 1000 nM, the EC50 ([5]; Table 10 key) was 200 to 600 nM and the EC50 ([6]; Table 10 key) was 600 to 1000 nM. For the same compound, the EC50 ([7]; Table 10 key) was 600 to 1000 nM.

In the case of `C=CC(=O)Nc1cc(Nc2ncc3cc(Nc4ccc(F)cc4F)c(=O)n(C)c3n2)c(OC)cc1OCCN(C)C` [Compound 142], the EC50 [1] is reported as less than 200 nM, the EC50 [2] is reported as less than 200 nM and the EC50 [3] is reported as less than 200 nM. For the same compound, the EC50 [4] was 600 to 1000 nM, the EC50 ([5]; Table 9 key) was less than 100 nM and the EC50 ([6]; Table 9 key) was less than 100 nM. It also gave an EC50 ([7]; Table 9 key) of 100 to 250 nM.

`C=CC(=O)Nc1cc(Nc2ncc3cc(Oc4ccc(F)c(Cl)c4)c(=O)n(C)c3n2)c(OC)cc1N(C)CCN(C)C` [Compound 137] was tested, and the EC50 ([5]; Table 10 key) was less than 200 nM, the EC50 ([6]; Table 10 key) was less than 200 nM and the EC50 ([7]; Table 10 key) was less than 200 nM.

`CC#CC(=O)Nc1cc(Nc2ncc3cc(Oc4ccc(F)cc4F)c(=O)n(C)c3n2)c(OC)cc1N(C)CCN(C)C` [Compound 125] was tested, and the EC50 [1] was less than 200 nM, the EC50 [2] was less than 200 nM and the EC50 [3] was less than 200 nM. It also gave an EC50 [4] of 600 to 1000 nM, an EC50 ([5]; Table 10 key) of less than 200 nM and an EC50 ([6]; Table 10 key) of less than 200 nM. The EC50 ([7]; Table 10 key) was 200 to 600 nM.

With `C=CC(=O)Nc1cc(Nc2ncc3cc(Oc4ccc(F)cc4F)c(=O)n(C)c3n2)cnc1N(C)CCN(C)C` [Compound 113] the EC50 [1] was less than 200 nM, the EC50 [2] was less than 200 nM and the EC50 [3] was less than 200 nM. The EC50 [4] was 600 to 1000 nM, the EC50 ([5]; Table 10 key) was less than 200 nM and the EC50 ([6]; Table 10 key) was less than 200 nM. The EC50 ([7]; Table 10 key) was less than 200 nM.

For `C=CC(=O)Nc1cc(Nc2ncc3cc(Nc4ccc(F)cc4F)c(=O)n(C)c3n2)c(OC)cc1N(C)CCN(C)C` [Compound 141], the EC50 [1] was less than 200 nM, the EC50 [2] was less than 200 nM and the EC50 [3] was less than 200 nM. The EC50 [4] was 200 to 600 nM, the EC50 ([5]; Table 9 key) was less than 100 nM and the EC50 ([6]; Table 9 key) was less than 100 nM. For the same compound, the EC50 ([7]; Table 9 key) was less than 100 nM.

In the case of `C=CC(=O)Nc1cc(Nc2ncc3cc(Oc4ccccc4)c(=O)n(C)c3n2)c(OC)cc1N(C)CCN(C)C` [Compound 132], the EC50 [1] is reported as less than 200 nM, the EC50 [3] is reported as less than 200 nM and the EC50 [4] is reported as less than 200 nM. It also gave an EC50 ([5]; Table 10 key) of less than 200 nM, an EC50 ([6]; Table 10 key) of less than 200 nM and an EC50 ([7]; Table 10 key) of less than 200 nM.

`C=CC(=O)Nc1cc(Nc2ncc3cc(Oc4ccc(F)cc4F)c(=O)n(C)c3n2)c(OC)cc1C1CCNCC1` [Compound 127] was tested, and the EC50 [1] was greater than 1000 nM, the EC50 [3] was greater than 1000 nM and the EC50 ([5]; Table 10 key) was greater than 1000 nM. The EC50 ([6]; Table 10 key) was greater than 1000 nM.

For `C=CC(=O)Nc1cccc(-n2c(=O)c(Oc3ccc(F)c(Cl)c3)cc3cnc(Nc4cnn(C)c4)nc32)c1` [Compound 88], the EC50 [1] was less than 200 nM, the EC50 [3] was less than 200 nM and the EC50 [4] was 200 to 600 nM. It also gave an EC50 ([5]; Table 10 key) of less than 200 nM, an EC50 ([6]; Table 10 key) of less than 200 nM and an EC50 ([7]; Table 10 key) of 200 to 600 nM.

Compound `C=CC(=O)Nc1cc(Nc2ncc3cc(Oc4ccc(F)cc4)c(=O)n(C)c3n2)ccc1N(C)CCN(C)C` [Compound 129] has an EC50 [1] of less than 200 nM, an EC50 [3] of 200 to 600 nM and an EC50 [4] greater than 1000 nM. It also gave an EC50 ([5]; Table 10 key) of less than 200 nM, an EC50 ([6]; Table 10 key) of less than 200 nM and an EC50 ([7]; Table 10 key) of 600 to 1000 nM.

`C=CC(=O)N1C[C@H](Cn2c(=O)c(Oc3ccc(F)cc3F)cc3cnc(N)nc32)[C@@H](OC)C1` [Compound 110] gave an EC50 [1] of 200 to 600 nM, an EC50 [3] of less than 200 nM and an EC50 ([5]; Table 10 key) of less than 200 nM. The EC50 ([6]; Table 10 key) was less than 200 nM.

`C=CC(=O)Nc1cc(Nc2ncc3cc(Oc4ccc(F)cc4)c(=O)n(C)c3n2)c(OC)cc1N(C)CCN(C)C` [Compound 130] was tested, and the EC50 [1] was less than 200 nM, the EC50 [3] was less than 200 nM and the EC50 [4] was less than 200 nM. For the same compound, the EC50 ([5]; Table 10 key) was less than 200 nM, the EC50 ([6]; Table 10 key) was less than 200 nM and the EC50 ([7]; Table 10 key) was less than 200 nM.

`C=CC(=O)Nc1cc(Nc2ncc3cc(Oc4ccc(F)cc4F)c(=O)n(C)c3n2)c(OC)cc1C1CCN(C)CC1` [Compound 128] gave an EC50 [1] of 200 to 600 nM, an EC50 [3] of 600 to 1000 nM and an EC50 ([5]; Table 10 key) of 200 to 600 nM. The EC50 ([6]; Table 10 key) was less than 200 nM.
